Results from patent publication US20030203975A1, “Anti-cancer agents” (priority 1998, published 2003).

Key:
Topoisomerase IIβ [1] = molecular target: T1, Topoisomerase IIβ (Homo sapiens, UniProt Q02880); test: Topo II relaxation assay; format: biochemical; set-up: key: ‘—’ = Not active; conditions: unit not given; compound at 1, 10, 25 and 50 μM in protocol
Procedure: (§1) Topo II Relaxation Assay Protocol
(§2) 10×Topo II Relaxation Buffer
(§3) 500 mM Tris-HCl (pH 7.5); 100 mM mgCI2; 50 mM EDTA; 300 mg/mI BSA; 10 mM DTT; −20° C.

Topoisomerase IIα [2] = molecular target: T2, Topoisomerase IIα (Homo sapiens, UniProt P11388); test: Topo II relaxation assay; format: biochemical; set-up: key: ‘—’ = Not active; conditions: unit not given; compound at 1, 10, 25 and 50 μM in protocol
Procedure: as §1, §2, §3

[3] = system: MAC 15A adenocarcinoma of the colon; test: In vitro chemosensitivity against MAC 15A adenocarcinoma (MTT assay); format: cell-based; conditions: Mus musculus, MAC15A, 96 hours continuous exposure
Procedure: In Vitro Activity Against MAC 15A Adenocarcinoma.
MAC 15A cells were grown in RPMI 1640 medium supplemented with 10% foetal calf serum containing a 1% antibiotic mixture under standard tissue culture conditions and were maintained at 37° C. in a humidified atmosphere of 5% CO2 in air. Cells were harvested from a stock culture in exponential growth phase and plated in 96-well flat-bottomed plates to achieve a final density of 2×10^3 cells per well. After 2 hours incubation medium was replaced with either fresh medium containing 0.5% DMSO (control) or medium containing test compound dissolved in DMSO at a concentrations from 10 mM to 1 nM. Chemosensitivity was assessed using MTT assay by the method of Plumb et al Cancer Research 49 (1989) 4435-4440.
Following 96 hours continuous exposure to drug at 37° C. cells were incubated with fresh drug-free medium immediately prior to addition of MTT solution (5 mg/ml). Medium and MTT were removed after 4 hours and 150 μl of DMSO was added. For each plate the absorbance of the resulting solution was measured at the analytical wavelength 550 nm for formazan product, using a Labsystem Mutiskan. IC50 values were obtained from growth curves of drug concentration against % survival and are expressed in μm.

Topoisomerase IIβ [4] = molecular target: T1, Topoisomerase IIβ; test: Topo II decatenation assay; format: biochemical; conditions: unit not given; kDNA substrate; compound at 1, 10, 25 and 50 μM in protocol
Procedure: (§4) Topisomerase Decatenation Assay.
(§5) This method uses catenated DNA substrate prepared from the kinetoplast of the insect trypanosome Crithidia fasciculata. Upon incubation with topo II, which engages DNA in a double stranded breakage-reunion cycle, DNA minicircles are released. Addition of topo-inhibiting drugs may prevent decatenation.
(§6) Topo II Decatenation Assay Protocol
(§7) This assay is the same as the Topo II Relaxation assay except that the pBR 322 Plasmid DNA is replaced with kDNA.
(§8) Results are included in Table 3 below

Topoisomerase IIα [5] = molecular target: T2, Topoisomerase IIα; test: Topo II decatenation assay; format: biochemical; set-up: key: ‘—’ = Not active; conditions: unit not given; kDNA substrate; compound at 1, 10, 25 and 50 μM in protocol
Procedure: as §4, §5, §6, §7, §8

Topoisomerase I = molecular target: T3, Topoisomerase I (Homo sapiens, UniProt P11387); test: Topo I cleavage assay; format: biochemical; conditions: at 10 μM
T3 sequence (P11387 1-765): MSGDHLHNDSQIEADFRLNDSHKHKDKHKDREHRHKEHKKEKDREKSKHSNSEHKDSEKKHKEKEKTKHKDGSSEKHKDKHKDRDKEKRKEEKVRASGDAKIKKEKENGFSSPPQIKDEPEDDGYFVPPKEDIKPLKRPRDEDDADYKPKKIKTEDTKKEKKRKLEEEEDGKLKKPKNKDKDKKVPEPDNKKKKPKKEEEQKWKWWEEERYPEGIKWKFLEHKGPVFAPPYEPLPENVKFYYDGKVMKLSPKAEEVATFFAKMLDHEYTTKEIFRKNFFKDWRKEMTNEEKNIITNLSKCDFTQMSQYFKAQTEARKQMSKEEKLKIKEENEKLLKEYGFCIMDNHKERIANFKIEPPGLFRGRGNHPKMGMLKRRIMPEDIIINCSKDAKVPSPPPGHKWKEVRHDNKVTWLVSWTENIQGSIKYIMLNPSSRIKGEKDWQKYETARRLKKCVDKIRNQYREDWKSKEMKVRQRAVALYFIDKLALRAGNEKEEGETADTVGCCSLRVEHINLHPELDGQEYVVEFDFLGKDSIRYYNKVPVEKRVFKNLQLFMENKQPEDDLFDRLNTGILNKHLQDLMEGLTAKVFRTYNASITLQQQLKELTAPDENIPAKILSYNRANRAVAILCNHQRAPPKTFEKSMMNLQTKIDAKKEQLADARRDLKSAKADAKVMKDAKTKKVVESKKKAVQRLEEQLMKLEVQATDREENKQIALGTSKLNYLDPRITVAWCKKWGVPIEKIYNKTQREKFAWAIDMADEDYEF

T2 sequence (P11388 whole entry): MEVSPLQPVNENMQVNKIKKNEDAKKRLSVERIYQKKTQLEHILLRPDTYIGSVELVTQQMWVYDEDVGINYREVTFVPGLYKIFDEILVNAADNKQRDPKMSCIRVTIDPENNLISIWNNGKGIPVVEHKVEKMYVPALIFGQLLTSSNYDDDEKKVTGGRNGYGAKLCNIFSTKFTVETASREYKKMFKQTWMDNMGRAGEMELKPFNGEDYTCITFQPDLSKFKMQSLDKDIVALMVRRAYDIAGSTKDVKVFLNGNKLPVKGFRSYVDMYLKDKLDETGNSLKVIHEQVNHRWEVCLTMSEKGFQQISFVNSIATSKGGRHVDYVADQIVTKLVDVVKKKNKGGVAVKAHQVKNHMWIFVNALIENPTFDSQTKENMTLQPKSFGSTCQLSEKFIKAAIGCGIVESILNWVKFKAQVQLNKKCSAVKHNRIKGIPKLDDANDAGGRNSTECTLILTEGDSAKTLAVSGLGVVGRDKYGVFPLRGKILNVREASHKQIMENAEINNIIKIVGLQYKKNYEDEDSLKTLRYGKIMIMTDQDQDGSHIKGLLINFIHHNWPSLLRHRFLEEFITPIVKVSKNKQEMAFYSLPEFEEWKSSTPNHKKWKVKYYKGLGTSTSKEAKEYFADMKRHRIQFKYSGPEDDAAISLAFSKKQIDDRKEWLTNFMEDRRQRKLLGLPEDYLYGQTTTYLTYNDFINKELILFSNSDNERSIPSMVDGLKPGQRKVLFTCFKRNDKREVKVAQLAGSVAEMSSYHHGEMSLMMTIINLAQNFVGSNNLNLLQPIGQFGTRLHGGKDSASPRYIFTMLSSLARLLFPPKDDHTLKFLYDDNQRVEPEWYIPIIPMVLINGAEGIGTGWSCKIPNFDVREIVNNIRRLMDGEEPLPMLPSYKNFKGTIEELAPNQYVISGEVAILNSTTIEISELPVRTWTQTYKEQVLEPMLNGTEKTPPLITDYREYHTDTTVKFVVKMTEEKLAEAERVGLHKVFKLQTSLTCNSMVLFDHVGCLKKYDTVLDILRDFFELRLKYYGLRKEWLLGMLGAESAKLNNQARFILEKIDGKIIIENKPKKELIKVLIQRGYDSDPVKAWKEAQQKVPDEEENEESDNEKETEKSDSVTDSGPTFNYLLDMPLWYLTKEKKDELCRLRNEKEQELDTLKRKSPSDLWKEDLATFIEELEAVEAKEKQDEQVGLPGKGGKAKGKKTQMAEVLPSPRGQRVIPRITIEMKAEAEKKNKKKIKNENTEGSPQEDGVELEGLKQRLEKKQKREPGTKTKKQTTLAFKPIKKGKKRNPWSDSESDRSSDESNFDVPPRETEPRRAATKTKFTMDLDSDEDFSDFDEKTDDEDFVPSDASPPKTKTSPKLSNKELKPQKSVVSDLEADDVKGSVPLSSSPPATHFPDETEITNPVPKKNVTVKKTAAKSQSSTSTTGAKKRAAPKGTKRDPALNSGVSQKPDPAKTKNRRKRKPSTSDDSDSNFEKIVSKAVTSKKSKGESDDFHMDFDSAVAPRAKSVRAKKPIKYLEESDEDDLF
T1 sequence (Q02880 whole entry): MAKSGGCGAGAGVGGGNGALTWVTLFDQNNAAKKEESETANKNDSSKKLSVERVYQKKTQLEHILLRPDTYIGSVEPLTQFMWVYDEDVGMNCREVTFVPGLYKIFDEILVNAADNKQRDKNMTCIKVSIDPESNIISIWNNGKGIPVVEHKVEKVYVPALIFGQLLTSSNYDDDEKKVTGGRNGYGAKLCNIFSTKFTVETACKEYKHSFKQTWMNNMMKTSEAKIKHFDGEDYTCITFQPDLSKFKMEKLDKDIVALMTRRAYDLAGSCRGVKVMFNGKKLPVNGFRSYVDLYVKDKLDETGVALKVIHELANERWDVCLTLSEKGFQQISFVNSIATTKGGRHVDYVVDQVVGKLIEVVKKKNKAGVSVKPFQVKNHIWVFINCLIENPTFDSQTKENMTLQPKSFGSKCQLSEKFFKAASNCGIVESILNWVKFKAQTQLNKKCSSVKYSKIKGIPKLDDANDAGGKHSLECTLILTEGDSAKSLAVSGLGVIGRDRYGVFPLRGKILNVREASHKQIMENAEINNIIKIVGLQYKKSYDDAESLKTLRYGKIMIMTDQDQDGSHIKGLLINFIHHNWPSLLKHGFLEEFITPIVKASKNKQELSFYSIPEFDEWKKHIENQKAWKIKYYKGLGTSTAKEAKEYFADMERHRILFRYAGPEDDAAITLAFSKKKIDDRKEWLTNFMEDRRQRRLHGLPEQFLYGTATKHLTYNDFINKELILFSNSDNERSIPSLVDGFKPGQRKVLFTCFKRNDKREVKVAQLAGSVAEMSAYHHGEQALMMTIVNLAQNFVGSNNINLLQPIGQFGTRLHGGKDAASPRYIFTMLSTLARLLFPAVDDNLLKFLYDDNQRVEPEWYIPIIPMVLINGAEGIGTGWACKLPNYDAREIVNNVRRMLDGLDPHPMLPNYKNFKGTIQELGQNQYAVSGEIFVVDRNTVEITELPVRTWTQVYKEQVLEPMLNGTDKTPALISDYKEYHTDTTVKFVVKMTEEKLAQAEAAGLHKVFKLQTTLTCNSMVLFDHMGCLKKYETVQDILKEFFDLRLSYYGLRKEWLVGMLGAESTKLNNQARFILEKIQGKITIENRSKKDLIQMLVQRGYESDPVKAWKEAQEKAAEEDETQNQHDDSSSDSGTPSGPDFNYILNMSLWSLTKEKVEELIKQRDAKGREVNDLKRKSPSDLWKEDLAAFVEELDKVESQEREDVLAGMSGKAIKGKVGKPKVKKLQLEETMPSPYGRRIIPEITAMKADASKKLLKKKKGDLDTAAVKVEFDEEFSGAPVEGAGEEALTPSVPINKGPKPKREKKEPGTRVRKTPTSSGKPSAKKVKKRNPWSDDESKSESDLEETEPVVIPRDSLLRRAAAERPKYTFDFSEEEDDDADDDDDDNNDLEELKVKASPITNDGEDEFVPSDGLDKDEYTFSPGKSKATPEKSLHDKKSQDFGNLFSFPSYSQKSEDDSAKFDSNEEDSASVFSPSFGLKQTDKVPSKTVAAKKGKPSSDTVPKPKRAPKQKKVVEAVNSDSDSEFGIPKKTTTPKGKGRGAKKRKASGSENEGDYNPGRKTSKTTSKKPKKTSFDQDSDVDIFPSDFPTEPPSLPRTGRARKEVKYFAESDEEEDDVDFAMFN

| Structure (SMILES) | TopIIβ Relax. (Topoisomerase IIβ [1]) | TopIIα Relax. (Topoisomerase IIα [2]) | IC50 [3] | TopIIβ Decat. (Topoisomerase IIβ [4]) | TopIIα Decat. (Topoisomerase IIα [5]) | nicked plasmid (Topoisomerase I) |
| --- | --- | --- | --- | --- | --- | --- |
| CC(C)[C@H](N)C(=O)OCCCNc1cccc2c1C(=O)c1ccccc1C2=O.O=C(O)C(F)(F)F [Example 35, 1-[3-(L-valyloxy)propylamino]anthracene-9,10-dione trifluoroacetate] | — | — | 2.9 µM |  |  |  |
| CC(C)[C@@H](N)C(=O)OCCCNc1cccc2c1C(=O)c1ccccc1C2=O.O=C(O)C(F)(F)F [Example 37, 1-[3-(D-valyloxy)propylamino]anthracene-9,10-dione trifluoroacetate] | — | — |  | 25 | — |  |
| O=C(O)C(F)(F)F.O=C1c2ccccc2C(=O)c2c(NCCCCOC(=O)[C@H]3CCCN3)cccc21 [Example 49, 1-[4-(D-prolyloxy)butylamino]anthracene-9,10-dione trifluoroacetate] | 25 | 25 |  |  |  |  |
| CC(C)[C@H](N)C(=O)OCCCNc1ccc(O)c2c1C(=O)c1c(O)cccc1C2=O.O=C(O)C(F)(F)F [Example 57, 4,8-dihydroxy-1-[3-(L-valyloxy)propylamino]anthracene-9,10-dione trifluoroacetate] | 25 | — | 3.8 µM | 25 | — |  |
| CC[C@@]1(O)C(=O)OCc2c1cc1n(c2=O)Cc2cc3ccccc3nc2-1 [campothecin, reference compound] |  |  |  |  |  | 90% |
